Assay [1] concerns the target T1, Polyunsaturated fatty acid 5-lipoxygenase (Homo sapiens, UniProt P09917).
T1 sequence (P09917 whole entry): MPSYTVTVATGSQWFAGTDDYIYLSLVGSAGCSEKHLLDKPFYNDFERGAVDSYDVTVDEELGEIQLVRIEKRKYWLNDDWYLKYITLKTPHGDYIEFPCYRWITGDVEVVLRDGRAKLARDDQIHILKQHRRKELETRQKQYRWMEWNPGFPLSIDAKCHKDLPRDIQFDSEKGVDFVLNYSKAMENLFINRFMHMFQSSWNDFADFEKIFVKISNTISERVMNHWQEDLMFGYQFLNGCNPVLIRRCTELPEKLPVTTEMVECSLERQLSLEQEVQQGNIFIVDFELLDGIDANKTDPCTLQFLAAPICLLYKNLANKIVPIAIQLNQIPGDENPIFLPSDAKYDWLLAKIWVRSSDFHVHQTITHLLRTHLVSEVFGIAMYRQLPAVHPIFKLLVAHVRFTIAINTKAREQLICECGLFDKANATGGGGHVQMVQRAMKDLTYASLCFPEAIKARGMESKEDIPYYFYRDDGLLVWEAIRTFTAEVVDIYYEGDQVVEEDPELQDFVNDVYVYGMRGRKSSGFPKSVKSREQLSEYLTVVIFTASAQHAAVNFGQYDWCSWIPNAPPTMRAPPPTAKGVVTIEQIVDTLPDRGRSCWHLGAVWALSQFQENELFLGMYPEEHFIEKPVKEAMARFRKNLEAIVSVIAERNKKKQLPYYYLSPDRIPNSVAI
Nature of the assay: Inhibition of 5-LOX (unknown origin).

Assay [2] deals with T2, Prostaglandin G/H synthase 2 (Homo sapiens, UniProt P35354).
T2 sequence (P35354 whole entry): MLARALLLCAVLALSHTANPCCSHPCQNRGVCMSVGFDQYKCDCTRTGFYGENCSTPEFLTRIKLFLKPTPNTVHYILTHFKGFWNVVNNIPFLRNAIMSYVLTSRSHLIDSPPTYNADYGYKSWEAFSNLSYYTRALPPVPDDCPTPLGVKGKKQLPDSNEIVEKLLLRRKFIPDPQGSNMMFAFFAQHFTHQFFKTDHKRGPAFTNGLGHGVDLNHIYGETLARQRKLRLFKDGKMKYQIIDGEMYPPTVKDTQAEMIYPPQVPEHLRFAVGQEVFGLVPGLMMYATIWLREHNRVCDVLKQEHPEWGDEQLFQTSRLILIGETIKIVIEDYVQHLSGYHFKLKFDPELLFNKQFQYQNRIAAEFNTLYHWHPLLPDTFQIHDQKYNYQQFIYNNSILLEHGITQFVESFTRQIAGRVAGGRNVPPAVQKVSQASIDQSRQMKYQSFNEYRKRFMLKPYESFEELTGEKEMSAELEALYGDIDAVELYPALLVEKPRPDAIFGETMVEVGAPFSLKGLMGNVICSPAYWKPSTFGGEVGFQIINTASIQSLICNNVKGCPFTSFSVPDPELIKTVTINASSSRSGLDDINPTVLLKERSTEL
Nature of the assay: Inhibition of COX2 (unknown origin).

Take `O=C(O)c1noc(-c2ccc(OCc3ccc4ccccc4n3)cc2)c1-c1ccc(Cl)cc1`: the concentration for half-maximal inhibition (IC50) in assay [1] fell in the range of 0.065 to 1.25 µM.

Take `CS(=O)(=O)c1ccc(-c2nc(SCCN(O)C(N)=O)nn2-c2ccc(Br)cc2)cc1`: the IC50 was found to be 0.85 µM in assay [1] and 0.15 µM in assay [2].

`Cc1cc(Nc2ncc(-c3ccc(F)cc3)o2)cc(C)c1O` registered an IC50 in assay [1] of 0.065 to 1.25 µM.

In assay [1], `CC[C@](O)(c1nnc(NCc2ccc3c(-c4ccc(F)cc4)cc(=O)oc3c2)o1)C(F)(F)F` [SETILEUTON] gave an IC50 of 0.065 to 1.25 µM.

One may read the IC50 as the concentration that inhibits the measured activity by half. Read a high IC50 as lower potency.

The values above are taken from ChEMBL document CHEMBL4152186, “Recent advances in the search for novel 5-lipoxygenase inhibitors for the treatment of asthma” (Eur J Med Chem, 2018).
